Like-named read-outs stand apart in the source and are kept apart here.
What was measured:
[1] = tested on: colon cancer cells (HCT116); test: Cancer cell line growth inhibition (SRB assay); assay type: cell-based; details: Homo sapiens, HCT-116, read-out: Cancer Cell Line GI50 Range HCT116
[2] = target: T1, human PLK4 (Homo sapiens, UniProt O00444); test: PLK4 inhibition assay (indirect ELISA); assay type: biochemical; details: 15 μM ATP
T1 construct: amino terminal GST fusion of residues 1-391 of human PLK4; made in house; host or cells: E. coli
T1 sequence (O00444 1-391): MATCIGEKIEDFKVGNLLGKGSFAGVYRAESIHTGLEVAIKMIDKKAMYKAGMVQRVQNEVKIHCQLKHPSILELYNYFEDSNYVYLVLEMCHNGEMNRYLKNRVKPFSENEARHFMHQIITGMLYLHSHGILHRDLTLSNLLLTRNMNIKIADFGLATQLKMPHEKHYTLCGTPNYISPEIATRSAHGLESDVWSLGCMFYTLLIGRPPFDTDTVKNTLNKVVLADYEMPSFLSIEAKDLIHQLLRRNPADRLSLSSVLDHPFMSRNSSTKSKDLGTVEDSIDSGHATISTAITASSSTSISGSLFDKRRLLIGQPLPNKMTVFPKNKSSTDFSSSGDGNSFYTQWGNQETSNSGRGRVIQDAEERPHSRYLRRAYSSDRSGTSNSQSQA
Protocol: Active PLK4 was purified from an E. coli expression system as an amino terminal GST fusion of residues 1-391 of human PLK4. The protein was purified from clarified cell extracts after induction at 15° C. overnight using glutathione sepharose, gel permeation chromatography, and ion exchange (Resource Q). The resulting protein was dephosphorylated with lambda phosphatase (NEB cat# P0753), and resolved from the phosphatase using gluthione sepharose. The dephosphorylated GST-PLK4 was stored in aliquots at −80° C. until use.
PLK4 activity was measured using an indirect ELISA detection system. Dephosphorylated GST-PLK4 (4 nM) was incubated in the presence of 15 μM ATP (Sigma cat# A7699), 50 mM HEPES-[…] pH 7.4, 10 mM MgCl2, 0.01% Brij 35 (Sigma cat# 03-3170), in a 96 well microtitre plate pre-coated with MBP (Millipore cat#30-011). The reaction was allowed to proceed for 30 minutes, followed by 5 washes of the plate with Wash Buffer (50 mM TRIS-Cl pH 7.4 and 0.2% Tween 20), and incubation for 30 minutes with a 1:3000 dilution of primary antibody (Cell Signaling cat# 9381). The plate was washed 5 times with Wash Buffer, incubated for 30 minutes in the presence of secondary antibody coupled to horse radish peroxidase (BioRad cat# 1721019, 1:3000 concentration), washed an additional 5 times with Wash Buffer, and incubated in the presence of TMB substrate (Sigma cat# T0440). The colourimetric reaction was allowed to continue for 5 minutes, followed by addition of stop solution (0.5 N sulphuric acid), and quantified by detection at 450 nm with either a monochromatic or filter based plate reader (Molecular Devices M5 or Beckman DTX880, respectively).
Compound inhibition was determined at either a fixed concentration (10 μM) or at a variable inhibitor concentration (typically 50 μM to 0.1 μM in a 10 point dose response titration). Compounds were pre-incubated in the presence of enzyme for 15 minutes prior to addition of ATP and the activity remaining quantified using the above described activity assay. The % Inhibition of a compound was determined using the following formula: % Inhibition=100×(1−(experimental value−background value)/(high activity control−background value)). The IC50 value was determined using a non-linear 4 point logistic curve fit (XLfit4, IDBS) with the formula: (A+(B/(1+((x/C)^D)))), where A=background value, B=range, C=inflection point, D=curve fit parameter.

[3] = target: T2, human TTK (Homo sapiens, UniProt P33981); test: TTK inhibition assay (indirect ELISA); assay type: biochemical; details: read-out: TTK IC50 Range
T2 construct: amino terminal GST fusion of full length human TTK; purchased Invitrogen
T2 sequence (P33981 1-857): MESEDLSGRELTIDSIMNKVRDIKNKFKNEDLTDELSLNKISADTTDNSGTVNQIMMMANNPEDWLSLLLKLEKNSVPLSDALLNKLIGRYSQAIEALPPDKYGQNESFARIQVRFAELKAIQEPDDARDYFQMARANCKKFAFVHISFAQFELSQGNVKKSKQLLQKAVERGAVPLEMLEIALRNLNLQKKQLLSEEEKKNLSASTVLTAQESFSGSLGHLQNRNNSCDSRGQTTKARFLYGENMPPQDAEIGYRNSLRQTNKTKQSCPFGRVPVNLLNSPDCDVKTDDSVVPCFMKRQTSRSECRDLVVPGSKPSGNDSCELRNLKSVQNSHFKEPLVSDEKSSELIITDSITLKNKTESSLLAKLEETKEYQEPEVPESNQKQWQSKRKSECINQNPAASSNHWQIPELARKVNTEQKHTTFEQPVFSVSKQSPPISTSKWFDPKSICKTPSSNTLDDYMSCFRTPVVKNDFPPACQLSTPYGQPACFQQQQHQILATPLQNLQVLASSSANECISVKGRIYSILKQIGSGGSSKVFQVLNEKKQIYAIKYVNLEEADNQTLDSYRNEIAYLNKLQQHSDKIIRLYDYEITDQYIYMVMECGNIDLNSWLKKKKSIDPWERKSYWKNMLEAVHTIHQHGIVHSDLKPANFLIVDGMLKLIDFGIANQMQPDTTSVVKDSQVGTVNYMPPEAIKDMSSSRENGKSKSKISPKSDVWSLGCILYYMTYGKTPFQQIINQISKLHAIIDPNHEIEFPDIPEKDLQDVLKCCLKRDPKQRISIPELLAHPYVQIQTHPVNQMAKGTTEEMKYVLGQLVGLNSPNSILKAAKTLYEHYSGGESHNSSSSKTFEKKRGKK

[4] = tested on: Breast cancer cells; test: Cancer cell line growth inhibition (SRB assay); assay type: cell-based; details: Homo sapiens; MDA-MB-468; read-out: Cancer Cell Line GI50 Range MDA-MB-468
[5] = tested on: ovarian cancer cells (PA-1); test: Cancer cell line growth inhibition (SRB assay); assay type: cell-based; details: Homo sapiens, PA-1; read-out: Cancer Cell Line GI50 Range PA-1
[6] = tested on: TICs (Colon 12); test: Colon tumor-initiating cell growth inhibition (Alamar Blue); assay type: cell-based; details: 216 h; Colon 12 TICs, 9 days; read-out: Tumor Initiating Cell GI50 Range Colon 12
[7] = tested on: TICs (Ovarian 2393A); test: Ovarian tumor-initiating cell growth inhibition (Alamar Blue); assay type: cell-based; details: 144 h; Ovarian 2393A TICs, 6 days; read-out: Tumor Initiating Cell GI50 Range Ovarain 2393A
[8] = HCT116 colon cancer cells, SRB assay

SMILES	GI50 [1, 8] [nM]	IC50 [2] [nM]	IC50 [3] [nM]	GI50 [4] [nM]	GI50 [1] [nM]	GI50 [5] [nM]	GI50 [6] [nM]	GI50 [7] [nM]
O=C(Nc1ccc2[nH]nc(-c3ccc(OC4CCNCC4)c(Cl)c3)c2c1)C(c1ccsc1)N1CCCC1 (stereo not drawn) [Example A34, N-(3-(3-chloro-4-(piperidin-4-yloxy)phenyl)-1H-indazol-5-yl)-2-(pyrrolidin-1-yl)-2-(thiophen-3-yl)acetamide]	< 100	< 50						
O=C(Nc1ccc2[nH]nc(-c3ccc(NC4CCOCC4)cc3)c2c1)C(c1ccsc1)N1CCCC1 (stereo not drawn) [Example A71, 2-(pyrrolidin-1-yl)-N-(3-(4-((tetrahydro-2H-pyran-4-yl)amino)phenyl)-1H-indazol-5-yl)-2-(thiophen-3-yl)acetamide]	< 100	< 50						
O=C(N[C@@H](c1ccccn1)C1CCCC1)c1ccc2[nH]nc(-c3ccc(N4CCN(C5COC5)CC4)cc3)c2c1 [Example A411, (R)-N-(cyclopentyl(pyridin-2-yl)methyl)-3-(4-(4-(oxetan-3-yl)piperazin-1-yl)phenyl)-1H-indazole-5-carboxamide]			< 100	< 100	< 100	< 100	< 100	< 100
CN1C2CCC1CC(Oc1ccc(-c3n[nH]c4ccc(C(=O)N[C@H](c5ccccc5)C5CC5)cc34)cc1)C2 (stereo partly drawn) [Example A376, N-((S)-cyclopropyl(phenyl)methyl)-3-(4-(((1R,3R,5S)-8-methyl-8-azabicyclo[3.2.1]octan-3-yl)oxy)phenyl)-1H-indazole-5-carboxamide]			< 100	100 to 500	< 100	< 100	100 to 500	100 to 500
O=C(N[C@H](c1ccccn1)C1CC1)c1ccc2[nH]nc(-c3ccc4c(c3)C(=O)CC3(CCN(C5COC5)CC3)O4)c2c1 [Example A264, (S)-N-(cyclopropyl(pyridin-2-yl)methyl)-3-(1′-(oxetan-3-yl)-4-oxospiro[chroman-2,4′-piperidin]-6-yl)-1H-indazole-5-carboxamide]			< 100	< 100	< 100	< 100	100 to 500	100 to 500
CC(C)CC(NC(=O)c1ccc2[nH]nc(-c3ccc(O[C@H]4C[C@H]5CC[C@@H](C4)N5C=O)cc3)c2c1)c1ccccn1 (stereo partly drawn) [Example A339]			< 100	< 100	< 100	< 100	< 100	< 100
O=C(N[C@H](c1ccccc1F)C1CC1)c1ccc2[nH]nc(-c3ccc(N4C5CCC4CC(O)C5)cc3)c2c1 (stereo partly drawn) [Example A265, N-((S)-cyclopropyl(2-fluorophenyl)methyl)-3-(4-((1R,3R,5S)-3-hydroxy-8-azabicyclo[3.2.1]octan-8-yl)phenyl)-1H-indazole-5-carboxamide]			< 100	< 100	< 100	< 100	< 100	< 100

More lines, now with the values ahead:

GI50 [1, 8] [nM]	IC50 [2] [nM]	IC50 [3] [nM]	GI50 [4] [nM]	GI50 [1] [nM]	GI50 [5] [nM]	GI50 [6] [nM]	GI50 [7] [nM]	SMILES
100 to 500	< 50							CCC(NC(=O)c1ccc2[nH]nc(-c3ccc(OC4CCN(C)CC4)cc3)c2c1)C1CCCCC1 (stereo not drawn) [Example A69, N-(1-cyclohexylpropyl)-3-(4-((1-methylpiperidin-4-yl)oxy)phenyl)-1H-indazole-5-carboxamide]
100 to 500	< 50							CN1CCC(Oc2ccc(-c3n[nH]c4ccc(NC(=O)C(c5ccsc5)N5CCCC5)cc34)cc2Cl)CC1 (stereo not drawn) [Example A57]
	< 50							CN1CCC(Oc2ccc(-c3n[nH]c4ccc(NC(=O)C(c5ccccn5)C5CCCC5)cc34)cc2)CC1 (stereo not drawn) [Example A179, 2-cyclopentyl-N-(3-(4-((1-methylpiperidin-4-yl)oxy)phenyl)-1H-indazol-5-yl)-2-(pyridin-2-yl)acetamide]
	< 50							CN1CCC(Oc2ccc(-c3n[nH]c4ccc(NC(=O)C(c5ccsc5)N5CCCC5)cc34)cc2)CC1 (stereo not drawn) [Example A7, N-(3-(4-((1-methylpiperidin-4-yl)oxy)phenyl)-1H-indazol-5-yl)-2-(pyrrolidin-1-yl)-2-(thiophen-3-yl)acetamide]
		< 100	100 to 500	100 to 500	100 to 500	> 500	100 to 500	CC(C)[C@H](NC(=O)c1ccc2[nH]nc(-c3ccc(OC4CCN(C[C@@H](O)C(F)(F)F)CC4)cc3)c2c1)c1ccccc1Cl [Example A228, N-((S)-1-(2-chlorophenyl)-2-methylpropyl)-3-(4-((1-((R)-3,3,3-trifluoro-2-hydroxypropyl)piperidin-4-yl)oxy)phenyl)-1H-indazole-5-carboxamide]
	< 50							O=C(NC(c1ccsc1)C1CC1)c1ccc2[nH]nc(-c3ccc(N4CCC(O)CC4)cc3)c2c1 (stereo not drawn) [Example A101, N-(cyclopropyl(thiophen-3-yl)methyl)-3-(4-(4-hydroxypiperidin-1-yl)phenyl)-1H-indazole-5-carboxamide]
		< 100	< 100	< 100	< 100	< 100	< 100	O=C(N[C@H](c1ccccc1F)C1CC1)c1ccc2[nH]nc(-c3ccc(N4CCN(C5COC5)CC4)cc3)c2c1 [Example A269, (S)-N-(cyclopropyl(2-fluorophenyl)methyl)-3-(4-(4-(oxetan-3-yl)piperazin-1-yl)phenyl)-1H-indazole-5-carboxamide]
	< 50							CC(C)C[C@H](NC(=O)c1ccc2[nH]nc(-c3ccc(N4C5COCC4CC(O)C5)cc3)c2c1)c1ccccn1 (stereo partly drawn) [Example A306, 3-(4-((1R,5S,7R)-7-hydroxy-3-oxa-9-azabicyclo[3.3.1]nonan-9-yl)phenyl)-N-((S)-3-methyl-1-(pyridin-2-yl)butyl)-1H-indazole-5-carboxamide]

From US9580390B2, “Indazole compounds as kinase inhibitors and method of treating cancer with same” (University Health Network, priority 2011, dated 2017)
